Reference: US9586914B2, “Modulators of C3a receptors” (THE UNIVERSITY OF QUEENSLAND, priority 2011, dated 2017)
Read-outs that look alike come from different tables or passages of the source.

Tests used:
C3a receptor (C3aR) = biological target: T1, C3a receptor (C3aR) (Homo sapiens, UniProt Q16581); test: Competitive binding with [^125I]-C3a in HMDM; settings: for remaining activity at 20 µM: 1 h, read-out: %[^125I]-C3a binding
T1 construct: peripheral blood mononuclear cells were isolated from buffy coat (obtained from Australian Red Cross Blood Service, Kelvin Grove); endogenous in cells; host or cells: primary human monocyte-derived macrophages (HMDM) differentiated from CD14+ monocytes of donor buffy coat
T1 sequence (Q16581 1-482): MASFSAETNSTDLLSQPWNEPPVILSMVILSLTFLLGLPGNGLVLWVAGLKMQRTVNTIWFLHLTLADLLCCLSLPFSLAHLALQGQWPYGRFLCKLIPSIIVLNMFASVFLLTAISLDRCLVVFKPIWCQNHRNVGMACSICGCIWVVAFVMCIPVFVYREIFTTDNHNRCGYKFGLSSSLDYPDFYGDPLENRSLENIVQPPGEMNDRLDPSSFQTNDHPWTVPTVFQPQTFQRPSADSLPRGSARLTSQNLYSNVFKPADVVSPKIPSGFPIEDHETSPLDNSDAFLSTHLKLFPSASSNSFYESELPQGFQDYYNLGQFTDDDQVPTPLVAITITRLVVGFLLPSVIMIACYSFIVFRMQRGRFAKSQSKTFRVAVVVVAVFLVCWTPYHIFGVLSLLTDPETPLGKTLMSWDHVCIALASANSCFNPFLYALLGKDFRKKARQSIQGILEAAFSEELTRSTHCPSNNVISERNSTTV
Description: For HMDM, peripheral blood mononuclear cells were isolated from buffy coat (obtained from Australian Red Cross Blood Service, Kelvin Grove) using Ficoll-paque density centrifugation (GE Healthcare Bio-Science, Uppsala, Sweden). CD^14+ monocytes were positively selected using CD^14+ MACS magnetic beads (Miltenyi Biotech, Auburn, Calif., USA). […] Cells were harvested by gentle scraping in saline solution and replated for use on Day 7. […] Unbound radioactivity was removed by filtration through glass microfiber filters GF/B (Whatman Iner. […] The filter was washed 3 times with cold buffer (50 mM Tris-HCl) pH 7.4. […] The −log IC50 for each compound was calculated for separate experiments and express as an arithmetic mean standard error (SE). IC50 values were expressed as a geometric mean.

C3aR = biological target: T2, C3aR (Homo sapiens, UniProt Q16581); test: Calcium mobilization assay in HMDM (agonist/antagonist activity); type: cell-based; settings: for Emax at 10 µM: read-out: % agonist
T2 construct: peripheral blood mononuclear cells were isolated from buffy coat (obtained from Australian Red Cross Blood Service, Kelvin Grove); endogenous in cells; host or cells: primary human monocyte-derived macrophages (HMDM) differentiated from CD14+ monocytes of donor buffy coat
T2 sequence (Q16581 1-482): T1 sequence (Q16581 1-482)
Procedure: Harvested HMDM cells were washed with 0.9% NaCl solution by centrifugation at 2500 rpm for 5 min, followed by resuspension of the cell pellet with complete media. Cells were seeded at 5×10^4 cells/well in a 96-well black-wall, clear bottom plate (DKSH, Zurich), and left overnight to adhere at 37° C. On the day of the experiment, supernatant was removed and cells were incubated in dye loading buffer (Hank's Balanced Salt Solution (HBSS) with 4 μM Fluo-3, 25 μL pluronic acid, 1% fetal bovine serum (FBS) and 2.5 mM probenecid) for one hour at 37° C. Cells were then washed twice with HBSS and transferred to a Fluorostar spectrofluorimeter (BMG, Durham N.C.) for oxazole compound injection and fluorescence measurements.
Various compounds were examined in the calcium mobilization assay for agonist or antagonist activity compared to hC3a and to the known antagonist SB290157.
HMDMs were seeded into black-wall, clear bottom 96-well plates (Corning Incorporated, NY) at 50,000 cells/well and left to incubate at 37° C. with 5% CO2 overnight for cells to adhere. The medium was removed before being washed with the assay buffer (1×HBSS, 20 mM HEPES, 2.5 mM probenecid, pH 7.4). To each well was added 100 μL of dye-loading buffer made up of 12 mL calcium buffer, 1% FBS, 25 μL of Fluo-3 dye (final concentration of 4 μM) and 25 μL of 20% pluronic acid. The plate was covered in aluminium foil to protect the light-sensitive dye and left to incubate at 37° C. for 1 h. The dye-loading buffer was removed before the cells were washed with the assay buffer to remove excess loading dye. To each well was added 50 μL of fresh assay buffer before the plate was loaded into a FLIPR (Fluorescent Imaging Plate Reader) that can inject treatments and measure any calcium release. To generate agonist plots, calcium release was monitored for 300 seconds. To generate antagonist plots, calcium release was recorded for 900 seconds, which at the same time would allow incubation for the antagonists. After the initial incubation period, an agonist would be added and the response was recorded for 300 seconds. Intracellular release of calcium was recorded via fluorescence measurements at wavelength of 485 nm for excitation and 520 nm for emission.

[1] = Table 6, competitive binding with [^125I]-C3a, HMDM
[2] = Table 6, competitive binding with [^125I]-C3a, HMDM, read-out: IC50 (converted)
[3] = Table 9, Ca^2+ mobilization, HMDM
[4] = Table 9, Ca^2+ mobilization, HMDM, read-out: EC50
[5] = Table 8, HMDM, read-out: Receptor Binding Affinity ^125I IC50
[6] = Table 10, HMDM, read-out: Antagonist Activity Ca^2+ IC50
[7] = Table 13, calcium release from HMDM, read-out: Antagonist Activity IC50
[8] = Table 14, binding affinity for C3aR on HMDM

For CC[C@H](C)[C@H](NC(=O)c1cccc(OC)c1OC)c1nc(C(=O)N[C@@H](CCCNC(=N)N)C(=O)O)co1 [Compound 22, 2,3-dimethoxybenzoic acid-isoleucine-oxazole-arginine-OH], the “pIC50 ± SEM” value (C3a receptor (C3aR); [1]) was 6.15 ± 0.14, the IC50 (C3a receptor (C3aR); [2]) was 712 nM and the “EC50 (nM)” value (C3aR; [3]) was “∞”. The “pEC50 ± SEM” value (C3aR; [3]) was “∞”.
CC(C)C[C@H](NC(=O)OC(C)(C)C)c1nc(C(=O)N[C@@H](CCCN/C(N)=N\C#N)C(=O)O)co1 [Compound 90, (S)-2-(2-((S)-1-((tert-butoxycarbonyl)amino)-3-methylbutyl)oxazole-4-carboxamido)-5-((Z)-2-cyanoguanidino)pentanoic acid] gave an IC50 (C3a receptor (C3aR); [2]) of 41 nM and an EC50 (C3aR; [4]) of 250 nM.
CC[C@H](C)[C@H](NC(=O)c1ccc(OC)cc1OC)c1nc(C(=O)N[C@@H](CCCNC(=N)N)C(=O)O)co1 [Compound 23, 2,4-Dimethoxybenzoic acid-isoleucine-oxazole-arginine-OH] was tested, and the “pIC50 ± SEM” value (C3a receptor (C3aR); [1]) was 6.06 ± 0.13, the IC50 (C3a receptor (C3aR); [2]) was 872 nM and the “pEC50 ± SEM” value (C3aR; [3]) was 6.07 ± 0.13. For the same compound, the EC50 (C3aR; [4]) was 849 nM.
With COc1ccccc1CC(=O)N[C@@H](CC(C)C)c1nc(C(=O)N[C@@H](CCCNC(=N)N)C(=O)O)c(C)o1 [Compound 37, 2-Methoxy-phenylacetic acid-Leucine-5-Methyl-Oxazole-Arginine] the remaining activity at 20 µM (C3a receptor (C3aR)) was 43% and the Emax at 10 µM (C3aR) was 81%.
With CC(C)(C)OC(=O)N[C@@H](CC1CCCCC1)c1nc(C(=O)N[C@@H](CCCNC(=N)N)C(=O)O)co1 [Compound 5, Boc-L-Cyclohexylalanine-Oxazole-Arg] the IC50 (C3a receptor (C3aR); [2]) was 82 nM and the EC50 (C3aR; [4]) was 135 nM.
Cc1nc(C(c2ccccc2)c2ccccc2)sc1C(=O)N[C@@H](CCCNC(=N)N)C(=O)O [Compound 59, 2-Diphenylmethyl-4-methyl thiazole-5-carboxyl-Arg-OH] showed an IC50 (C3a receptor (C3aR); [2]) of 38 nM, an IC50 (C3a receptor (C3aR); Table 6, competitive binding with [^125I]-C3a, HMDM, read-out: pIC50 ± SEM (converted)) of 91.2 nM and an IC50 (C3a receptor (C3aR); [5]) of 38 nM. It also gave an IC50 (C3a receptor (C3aR); Table 12, read-out: Receptor Binding Affinity IC50) of 91 nM, an IC50 (C3a receptor (C3aR); Table 14, binding affinity for C3aR on HMDM, read-out: -Log IC50 (converted)) of 12.6 nM and an EC50 (C3aR; [4]) of 74800 nM. The IC50 (C3aR; [6]) was 1000 nM and the EC50 (C3aR; Table 12, read-out: Apparent Agonist Activity EC50) was 74800 nM.
In the case of CC[C@H](C)[C@H](NC(=O)c1cncc(Br)c1)c1nc(C(=O)N[C@@H](CCCNC(=N)N)C(=O)O)co1 [Compound 20], the “pIC50 ± SEM” value (C3a receptor (C3aR); [1]) is reported as 8.30 ± 0.10, the IC50 (C3a receptor (C3aR); [2]) is reported as 5 nM and the “pEC50 ± SEM” value (C3aR; [3]) is reported as 7.76 ± 0.36. It also gave an EC50 (C3aR; [4]) of 17 nM.
For Cc1oc([C@H](CC(C)C)NC(=O)C2CCCCC2)nc1C(=O)N[C@@H](CCCNC(=N)N)C(=O)O [Compound 32, Cyclohexane carboxylic acid-Leucine-5-Methyl-Oxazole-Arginine], the remaining activity at 20 µM (C3a receptor (C3aR)) was 39% and the Emax at 10 µM (C3aR) was 107%.
With Cc1oc([C@H](CC(C)C)NS(=O)(=O)c2ccccc2)nc1C(=O)N[C@@H](CCCNC(=N)N)C(=O)O [Compound 40, Phenyl sulfonamide-Leucine-5-Methyl-Oxazole-Arginine] the remaining activity at 20 µM (C3a receptor (C3aR)) was 44% and the Emax at 10 µM (C3aR) was 103%.
Work on N=C(N)NCCC[C@H](NC(=O)c1ccc(C(c2ccccc2)c2ccccc2)s1)C(=O)NS(=O)(=O)c1ccccc1 [Compound 94, (S)-5-benzhydryl-N-(5-guanidino-1-oxo-1-(phenylsulfonamido)pentan-2-yl)thiophene-2-carboxamide] yielded an IC50 (C3a receptor (C3aR); [2]) of 35 nM and an IC50 (C3aR; [7]) of 300 nM.
In the case of N=C(N)NCCC[C@H](NC(=O)c1noc(C(c2ccccc2)c2ccccc2)n1)C(=O)O [Compound 68, 5-Diphenylmethyl-1-oxa-2,4-diazole-3-carboxyl-Arginine-OH], the IC50 (C3a receptor (C3aR); [5]) is reported as 447 nM and the IC50 (C3aR; [6]) is reported as 1200 nM.
For Cc1nc([C@H](CC(C)C)NC(=O)OC(C)(C)C)sc1C(=O)N[C@@H](CCCNC(=N)N)C(=O)O [Compound 82, Boc-Leucine-thiazole-Arginine-OH], the IC50 (C3a receptor (C3aR); [2]) was 375 nM and the IC50 (C3aR; [7]) was 200 nM.
CC(C)C[C@H](NC(=O)OC(C)(C)C)c1nc(C(=O)N[C@@H](CCCNC(=N)N)C(=O)NS(C)(=O)=O)co1 [Compound 93, tert-butyl ((S)-1-(4-(((S)-5-guanidino-1-(methylsulfonamido)-1-oxopentan-2-yl)carbamoyl)oxazol-2-yl)-3-methylbutyl)carbamate] was tested, and the IC50 (C3a receptor (C3aR); [2]) was 30 nM and the IC50 (C3aR; [7]) was 2000 nM.
Work on Cc1oc([C@H](CC(C)C)NC(=O)c2cc3ccccc3o2)nc1C(=O)N[C@@H](CCCNC(=N)N)C(=O)O [Compound 26, Benzofuran carboxylic acid-Leucine-5-Methyl-Oxazole-Arginine] yielded a remaining activity at 20 µM (C3a receptor (C3aR)) of 19% and an Emax at 10 µM (C3aR) of 84%.
N=C(N)NCCC[C@H](NC(=O)c1nc(C(c2ccccc2)c2ccccc2)no1)C(=O)O [Compound 67, 3-Diphenylmethyl-1-oxa-2,4-diazole-5-carboxyl-Arginine-OH] was tested, and the IC50 (C3a receptor (C3aR); [5]) was 11 nM, the “-Log IC50” value (C3a receptor (C3aR); [8]) was 7.9 and the IC50 (C3aR; [6]) was 1300 nM.
COc1ccc(OC)c(CC(=O)N[C@@H](CC(C)C)c2nc(C(=O)N[C@@H](CCCNC(=N)N)C(=O)O)c(C)o2)c1 [Compound 44, 2,5-Dimethoxy-phenyl acetic acid-Leucine-5-Methyl-Oxazole-Arginine] was tested, and the remaining activity at 20 µM (C3a receptor (C3aR)) was 42% and the Emax at 10 µM (C3aR) was 69%.
N=C(N)NCCC[C@H](NC(=O)c1sc(C(c2ccccc2)c2ccccc2)nc1-c1ccccc1)C(=O)O [Compound 65, 2-Diphenylmethyl-4-phenyl thiazole-5-carboxyl-Arg-OH] gave an IC50 (C3a receptor (C3aR); [5]) of 3370 nM and an IC50 (C3aR; [6]) of 67000 nM.
For CC(C)C[C@H](NC(=O)Cc1ccc(F)cc1)c1nc(C(=O)N[C@@H](CCCNC(=N)N)C(=O)O)co1 [Compound 24, 2-(4-fluorophenyl)acetic acid-Leucine-Oxazole-Arginine-OH], the “pIC50 ± SEM” value (C3a receptor (C3aR); [1]) was 6.99 ± 0.10, the IC50 (C3a receptor (C3aR); [2]) was 102 nM and the “pEC50 ± SEM” value (C3aR; [3]) was 6.28 ± 0.16. It also gave an EC50 (C3aR; [4]) of 527 nM.
In the case of Cc1oc(C(c2ccccc2)c2ccccc2)nc1C(=O)N[C@@H](CCCNC(=N)N)C(=O)O [Compound 61, 2-Diphenylmethyl-5-methyl oxazole-4-carboxyl-Arg-OH], the IC50 (C3a receptor (C3aR); [5]) is reported as 740 nM, the “-Log IC50” value (C3a receptor (C3aR); [8]) is reported as 8.0 and the “Agonist Activity (in words)” value (C3aR; Table 10, HMDM) is reported as “partial agonist”. It also gave an IC50 (C3aR; [6]) of 30 nM.
COc1ccc(CC(=O)N[C@@H](CC(C)C)c2nc(C(=O)N[C@@H](CCCNC(=N)N)C(=O)O)c(C)o2)cc1OC [Compound 43, 3,4-Dimethoxy-phenyl acetic acid-Leucine-5-Methyl-Oxazole-Arginine] gave a remaining activity at 20 µM (C3a receptor (C3aR)) of 65% and an Emax at 10 µM (C3aR) of 67%.
With CC(C)C[C@H](NC(=O)OC(C)(C)C)c1nc(C(=O)N[C@@H](CCCNC(=N)N)C(=O)NS(=O)(=O)c2ccccc2)co1 [Compound 92, tert-butyl ((S)-1-(4-(((S)-5-guanidino-1-oxo-1-(phenylsulfonamido)pentan-2-yl)carbamoyl)oxazol-2-yl)-3-methylbutyl)carbamate] the IC50 (C3a receptor (C3aR); [2]) was 7.5 nM and the IC50 (C3aR; [7]) was 1300 nM.
With CC(C)C[C@H](NC(=O)OC(C)(C)C)c1nc(C(=O)N[C@@H](CCONC(=N)N)C(=O)O)co1 [Compound 91, (S)-2-(2-((S)-1-((tert-butoxycarbonyl)amino)-3-methylbutyl)oxazole-4-carboxamido)-4-(guanidinooxy)butanoic acid] the IC50 (C3a receptor (C3aR); [2]) was 93 nM and the EC50 (C3aR; [4]) was 370 nM.
